Data as given in US20200093801A1, “NEW METHODS FOR THE TREATMENT OF MULTIPLE SCLEROSIS” (Novartis AG, priority 2017, published 2020).
“Also recorded” adds a separate entry of the source.

Tested on: microglia
Test: Microglia depletion and activation in naive/wildtype mice after 5 days of treatment (Iba1 histology)
Type: in vivo
Protocol: After fixation brains were processed for paraffin embedding by dehydration through increasing ethanol series. Automated immunohistochemistry of paraffin sections was performed on 3 μm paraffin sections mounted on SuperFrost+slides (Thermo Fisher Scientific) and automatically immunostained using the Discovery XT technology (Ventana, Roche Diagnostics). Sections were deparaffinized, rehydrated, subjected to antigen retrieval by heating with CC1 cell conditioning buffer for 28-68 min according to the antibody, incubated for 1-3 hours according to the antibody at room temperature with primary antibody diluted in antibody diluent (Ventana), incubated with the respective biotinylated secondary antibody diluted in antibody diluent, reacted with DABMab kit and counterstained with Hematoxylin II and Bluing reagent (Ventana). Slides were washed with soap in hot tap water and rinsed under cold running tap water to remove the soap, then dehydrated and embedded with Pertex.
Secondary detection antibodies are: Goat anti-rabbit IgG biotinylated (Jackson ImmunoResearch 111-065-144) 1:1000; Goat anti-rabbit IgG biotinylated (Vector BA-1000) 1:200 or 1:1000
For the quantitative evaluation of microglia/astrocyte numbers based on image analysis from histological stained brain sections, a proprietary image analysis platform (ASTORIA, Automated Stored Image Analysis) was developed based on MS Visual Studio 2010 and many functions from Matrox MIL V9 libraries (Matrox Inc, Quebec, Canada).
For the detection and analysis of soma the following sequence of steps was performed: 1. Slides with brain sections for assessment of (brown) IHC stained microglia (Iba1) or astrocyte (GFAP) were scanned with Aperio's Scanscope at 20× magnification. 2. Ran the in-house developed ImageScope (V12.1.0.5029, Aperio Inc., USA) plug-in for creation and export of 3×8-bit RGB tif image tiles (at 20× magnification) for each section. 3. Image processing (for each tif image): A: Performed color deconvolution on each tif image to obtain brown stained image without blue. B: Segmentation of valid sample (brain tissue) from white background through thresholding, morphological closing, filling of holes, opening and elimination of too small objects, resulting in a binary mask of the valid tissue and sample area for the current image. C: Applied an adaptive thresholding technique for the individual segmentation of soma, based on the average gray value of the blue channel of the color-deconvoluted brown image at sufficiently dark regions (indicative for soma). The computed threshold was used for binarization, and after size filtering yielding the soma mask image (within the valid sample region).
FIG. 10: BLZ945 treatment leads to microglia depletion and microglia activation in a dose-dependent manner. […]

[1] = 20 mg/kg p.o. qd, naive/wildtype mice

CNC(=O)c1cc(Oc2ccc3nc(N[C@@H]4CCCC[C@H]4O)sc3c2)ccn1 [BLZ945, 4-(2-((1R,2R)-2-hydroxycyclohexylamino)benzothiazol-6-yloxy)-N-methylpicolinamide]
Microglia activation (Iba1-positive microglia size normalized to distal microglia processes), cortex [1]: only mildly; also recorded: slight increase in the activation status
Microglia depletion (Iba1-positive microglia numbers), cortex [1]: no microglia depletion; also recorded: no microglia reduction
Microglia activation (Iba1-positive microglia size normalized to distal microglia processes), cortex (60 mg/kg p.o. qd, naive/wildtype mice): strong microglia activation; also recorded: substantially enhanced the morphological activation status; also recorded: altered microglia morphology
Microglia depletion (169 mg/kg p.o. qd, naive animals, all brain areas): almost completely depletes microglia; also recorded: near complete microglia depletion
